# Data from patent EP2386631A1, “Purified lipase, methods of modification and applications” (Universiti Putra Malaysia, priority 2010, dated 2011).
# Several values for one entry are separate records, joined by “and”; a condition that tells them apart may be missing. Equal values may be shown once. Square brackets hold non-standard residues; d marks the D form. Peptide text beside a SMILES is read from it. * marks the point of attachment. Sta = CC(C)C[C@H](N)[C@@H](O)CC(=O)O; Isovaleryl = CC(C)CC(=O)*
# How the values were obtained:
# 205y lipase (-SP/TM) [1] = test: Effect of inhibitors on lipase activity; assay type: biochemical, Bacillus sphaericus 205y; conditions: for Relative activity (100%): 37°C, 30 min prior to lipase assay, mean ± SD, n=3
# Method: The effect of inhibitors were tested on 205y lipase (-SP/TM) activity by preincubating the enzyme with dithiothreitol (DTT), β-mercaptoethanol, phenylmethylsulfonyl fluoride (PMSF), ethylenediaminetetraacetic acid ([…]) except for pepstatin A (1 mM). The residual activity was measured at optimum temperature and expressed as percentage of activity without inhibitor.
# 205y lipase (-SP/TM) [2] = test: Effect of organic solvents on lipase activity; assay type: biochemical, Bacillus sphaericus 205y; conditions: enzyme:solvent 3:1 v/v, 37°C, 30 min; relative to activity without organic solvent
# Method: The activity of 205 lipase (-SP/TM) towards the presence of organic solvents was tested by preincubating a mixture of purified enzyme with organic solvents (3:1, v/v) for 30 min at agitation rate of 200 rpm. Residual activity was measured at optimum temperature and expressed as percentage of activity without organic solvent. […] Mixture of enzyme and organic solvent (3:1 v/v) was incubated at 37°C for 30 min and the residual activity was measured using spectrophotometric method.
# 205y lipase (-SP/TM) [3] = test: Effect of metal ions on lipase activity; assay type: biochemical, Bacillus sphaericus 205y; conditions: 1 mM metal chloride, 50 mM potassium phosphate buffer pH 8.0, 37°C, 30 min
# Method: The effect of metal ions on lipase activity was investigated by treating 205y lipase (-SP/TM) with 1 mM and 10 mM of various metal chlorides ( Na^+, K^+, Mg^2+, Ca^2+, Fe^2+, Mn^2+, Zn^2+ and Cu^2+) in 50 mM potassium phosphate buffer pH 8.0 at 37°C for 30 min. The mixture was subjected to lipase assay after treatment and expressed as a percentage of activity without the metal chloride.
# [4] = system: wild type organic solvent stable lipase secreted by Bacillus sphaericus 205y; conditions: presence of the solvent; cited from earlier work
# 205y lipase (-SP/TM) [5] = test: Effect of surfactants on lipase activity; assay type: biochemical, Bacillus sphaericus 205y; conditions: 0.1% surfactant (text: 1 mM), 37°C, 30 min prior to lipase assay, mean ± SD, n=3
# Method: The activity of 205y lipase (-SP/TM) towards surfactants was determined by preincubating the enzyme with various surfactants at a concentration of 1 mM at 37°C for 30 min. The surfactants used were Tween 20, Tween 40, Tween 60, Tween 80, Triton X-100, sodium dodecyl sulphate (SDS) and sodium lauryl sulphate (SLS). Residual activity was measured colorimetrically and expressed as percentage of activity without surfactant. […]. Table 7. Effect of surfactants on 205y lipase (-SP/TM) activity
# [6] = cited from earlier work
compound,measurement,setting,value
"O[C@H](CS)[C@H](O)CS (racemic) [DTT, dithiothreitol]",inhibition,205y lipase (-SP/TM) [1]; 1 mM inhibitor,16.6%
same,Relative activity (100%),205y lipase (-SP/TM) [1]; 1 mM inhibitor,83.4 ± 2.0%
same,Relative activity (100%),205y lipase (-SP/TM) [1]; 10 mM inhibitor,45.5 ± 2.5%
CCCCCCCCCCO [1-decanol],lost in activity,205y lipase (-SP/TM) [2],more than 50%
[Ca+2] [Ca^2+],effect on lipase activity,205y lipase (-SP/TM) [3],promoted
[Cu+2] [Cu^2+],activity retained,205y lipase (-SP/TM) [3],> 50%
"C[S+](C)[O-] [DMSO, dimethyl sulfoxide]",enhancement in activity,205y lipase (-SP/TM) [2],more than 30%
same,lipase activity lost,[4],approximately 80%
"O=C(O)CN(CCN(CC(=O)O)CC(=O)O)CC(=O)O [EDTA, ethylenediaminetetraacetic acid]",Relative activity (100%),205y lipase (-SP/TM) [1]; 1 mM inhibitor,78.2% and 78.2 ± 1.8%
same,Relative activity (100%),205y lipase (-SP/TM) [1]; 10 mM inhibitor,40.1 ± 4.2%
[Fe+2] [Fe^2+],activity retained,205y lipase (-SP/TM) [3],> 50%
[K+] [K^+],effect on lipase activity,205y lipase (-SP/TM) [3],promoted
[Mg+2] [Mg^2+],effect on lipase activity,205y lipase (-SP/TM) [3],promoted
[Mn+2] [Mn^2+],activity retained,205y lipase (-SP/TM) [3],> 50%
[Na+] [Na^+],activity retained,205y lipase (-SP/TM) [3],> 50%
"O=S(=O)(F)Cc1ccccc1 [PMSF, phenylmethylsulfonyl fluoride]",Relative activity (100%),205y lipase (-SP/TM) [1]; 1 mM inhibitor,74.0 ± 3.3%
same,Relative activity (100%),205y lipase (-SP/TM) [1]; 10 mM inhibitor,70.3 ± 2.8%
"CC(C)CC(=O)N[C@H](C(=O)N[C@H](C(=O)N[C@@H](CC(C)C)[C@@H](O)CC(=O)N[C@@H](C)C(=O)N[C@@H](CC(C)C)[C@@H](O)CC(=O)O)C(C)C)C(C)C [Pepstatin A, pepstatin A] (Isovaleryl-VV[Sta]A[Sta]-OH)",Relative activity (100%),205y lipase (-SP/TM) [1]; 1 mM inhibitor,86.9 ± 1.5%
"CCCCCCCCCCCCOS(=O)(=O)[O-].[Na+] [SDS, sodium dodecyl sulphate]",Relative activity (100%),205y lipase (-SP/TM) [5]; sulphate,28.9 ± 2.8%
"CCCCCCCCCCCCOS(=O)(=O)[O-].[Na+] [SLS, sodium lauryl sulphate]",Relative activity (100%),205y lipase (-SP/TM) [5]; sulphate,52.5% and 52.5 ± 1.9%
[Zn+2] [Zn^2+],activity retained,205y lipase (-SP/TM) [3],> 50%
CC#N [acetonitrile],enhancement in activity,205y lipase (-SP/TM) [2],more than 30%
same,effect on lipase activity,[4],complete deactivation
same,log P,[6],-0.15
CCO [ethanol],enhancement in activity,205y lipase (-SP/TM) [2],more than 30%
CCCCCCCCCCCCCCCC [hexadecane],enhancement in activity,205y lipase (-SP/TM) [2],more than 30%
same,log P,[6],8.8
CO [methanol],enhancement in activity,205y lipase (-SP/TM) [2],more than 30%
same,log P,[6],-0.76
CCCCCCCCCC [n-decane],enhancement in activity,205y lipase (-SP/TM) [2],more than 30%
same,log P,[6],5.6
CCCCCCCCCCCC [n-dodecane],lost in activity,205y lipase (-SP/TM) [2],more than 50%
same,log P,[6],6.6
CCCCCC [n-hexane],enzyme activity enhanced,[4],3.5 fold
Cc1ccc(C)cc1 [p-xylene],lost in activity,205y lipase (-SP/TM) [2],more than 50%
same,enzyme activity enhanced,[4],2.9 fold
same,log P,[6],3.1
Cc1ccccc1 [toluene],lost in activity,205y lipase (-SP/TM) [2],more than 50%
OCCS [β-mercaptoethanol],inhibition,205y lipase (-SP/TM) [1]; 1 mM inhibitor,2.8%
same,Relative activity (100%),205y lipase (-SP/TM) [1]; 1 mM inhibitor,97.2 ± 2.7%
same,Relative activity (100%),205y lipase (-SP/TM) [1]; 10 mM inhibitor,76.3 ± 1.2%
Triton X-100,Relative activity (100%),205y lipase (-SP/TM) [5],47.3 ± 4.4%
Tween 20,Relative activity (100%),205y lipase (-SP/TM) [5],31.3 ± 1.1%
Tween 40,Relative activity (100%),205y lipase (-SP/TM) [5],27.9 ± 1.7%
Tween 60,Relative activity (100%),205y lipase (-SP/TM) [5],34.0 ± 3.5%
Tween 80,Relative activity (100%),205y lipase (-SP/TM) [5],29.4 ± 2.4%
n-butanol,lost in activity,205y lipase (-SP/TM) [2],more than 50%
